{"source": "paper PMC2913153", "about": "(Journal of the American Chemical Society, 2010)", "key": {"FPR": {"tested_on": "FPR", "conditions": "compared with fMLF; result in words; ref [13]; cited from earlier work"}, "FPR-negative U937 cells": {"tested_on": "FPR-negative U937 cells", "assay": "Chemotaxis of FPR-negative U937 cells", "type": "cell-based", "conditions": "result in words"}}}
{"substance": "N-formyl-norleucine-leucine-phenylalanine [Compound 1]", "values": [{"measurement": "chemoattractant potency relative to fMLF", "setting": "FPR", "value": "less potent than fMLF"}, {"measurement": "chemotactic activity in FPR-negative U937 cells", "setting": "FPR-negative U937 cells", "value": "None of the compounds induce chemotactic activity"}]}
